The values that follow are results of earlier work, collected in patent US20220184159A1, “METHOD OF BOOSTING INNATE IMMUNITY” (UNIVERSITY OF THE SUNSHINE COAST, priority 2018, published 2022).

The conditions of series [1]: administered in the feed, fish.
A further series concerns immune system of fish. The following applies: carp, rainbow trout, turbot and Atlantic cod.

Turning to `CN(C)[C@@H]1C(O)=C(C(N)=O)C(=O)[C@@]2(O)C(O)=C3C(=O)c4c(O)cccc4[C@@](C)(O)[C@H]3[C@H](O)[C@@H]12` [Oxytetracycline], the “ingested oxytetracycline excreted intact in the faeces” value in series [1] is listed as 70-80%. In addition, the “effect on the immune system of fish” value with immune system of fish is “immunosuppressive effects”.
